Measured values taken from patent US9566312B2, “Cyclic peptides and use as medicines” (priority 2012, dated 2017).
Read-outs that look alike come from different tables or passages of the source. Starred links: 1 amine or outer side, 2 acyl side, 3 side chain; linkers in the order of their positions; H or OH if unused. Non-standard residues stand in square brackets, D forms with d. Residues, ends and D or L forms follow the SMILES beside them. X42 = C[C@H](CCCOC(=O)N(C)C1CCN(C)CC1)[C@@H](C(=O)[*:2])N(C)[*:1]; X31 = C[C@H](CN1C[C@H](C)OC[C@@H]1C)[C@@H](C(=O)[*:2])N(C)[*:1]; X82 = C[C@H](COCCN1CCOC[C@@H]1C)[C@@H](C(=O)[*:2])N(C)[*:1]; X46 = C[C@H](CN1CC2CCC(C1)O2)[C@@H](C(=O)[*:2])N(C)[*:1]; X52 = C[C@H](CCC(=O)N1CCOCC1)[C@@H](C(=O)[*:2])N(C)[*:1]; MeBmt = C/C=C/C[C@@H](C)[C@@H](O)[C@H](NC)C(=O)O; NMeL = CN[C@@H](CC(C)C)C(=O)O; NMeV = CN[C@H](C(=O)O)C(C)C; dNMeA = CN[C@H](C)C(=O)O; Abu = CC[C@H](N)C(=O)O

Legend:
[1] = target: organic anion transporting polypeptide 1B1 (OATP1B1) (Homo sapiens (Human), UniProt Q9Y6L6); assay: OATP assay in CHO-OATP1B1 cells;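 also: inhibition of probe substrate uptake into the cells, ten minutes exposure, accumulated substrate read by fluorescence once cells were lysed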
organic anion transporting polypeptide 1B1 (OATP1B1), sequence (Q9Y6L6 whole entry): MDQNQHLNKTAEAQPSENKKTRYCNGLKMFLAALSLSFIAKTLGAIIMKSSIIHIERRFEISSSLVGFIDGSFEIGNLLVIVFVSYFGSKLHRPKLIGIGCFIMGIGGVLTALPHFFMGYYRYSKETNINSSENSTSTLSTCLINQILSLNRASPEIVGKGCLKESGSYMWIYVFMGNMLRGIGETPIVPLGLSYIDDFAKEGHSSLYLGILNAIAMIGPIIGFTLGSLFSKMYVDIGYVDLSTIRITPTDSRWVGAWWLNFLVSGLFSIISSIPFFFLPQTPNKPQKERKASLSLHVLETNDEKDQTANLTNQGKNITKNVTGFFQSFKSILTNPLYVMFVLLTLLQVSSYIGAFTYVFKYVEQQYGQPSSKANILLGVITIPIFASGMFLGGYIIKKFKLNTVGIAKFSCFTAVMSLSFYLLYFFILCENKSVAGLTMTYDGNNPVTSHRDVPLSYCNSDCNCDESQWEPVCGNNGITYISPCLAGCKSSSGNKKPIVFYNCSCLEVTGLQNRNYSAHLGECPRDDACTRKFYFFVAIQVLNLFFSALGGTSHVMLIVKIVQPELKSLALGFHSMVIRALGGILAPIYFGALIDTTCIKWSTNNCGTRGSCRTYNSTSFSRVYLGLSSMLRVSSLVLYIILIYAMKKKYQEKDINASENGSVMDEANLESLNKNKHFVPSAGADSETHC
Protocol: In order to determine whether the compounds of the present invention interact with hepatic transporters, experiments were carried out that compared the concentration-dependent inhibition toward the organic anion transporting polypeptide 1B1 (OATP1B1) and the multidrug resistance associated protein 2 (MRP2).
The cells were cultured in DMEM/F12 +10% FBS+2 mM Ala-Gln+1% Pen-Strep for a period of two days, and the media was changed one day post-seeding. Prior to the assay, media was aspirated and were washed −3× with HBSS+10 mM HEPES and the solution was equilibrated for 15 min in HBSS+10 mM HEPES. Solutions containing the inhibitor were prepared in HBSS+10 mM HEPES (up to 1% DMSO). […] After 10 min, the substrate or substrate/inhibitor solution was aspirated and the cells were washed 3× with HBSS+10 mM HEPES. The amount of the transported probe substrate was determined by fluorescent photometry after cell lysis, and the IC50 was derived from the concentration-response curve.

cyclophilin A (CypA) = cyclophilin A (CypA) (Homo sapiens (Human), UniProt P62937); assay: Inhibitor binding to cyclophilin proteins by SPR, CypA; set-up: unit not given here; conditions: 1:1 binding model
cyclophilin A (CypA), sequence (P62937 whole entry): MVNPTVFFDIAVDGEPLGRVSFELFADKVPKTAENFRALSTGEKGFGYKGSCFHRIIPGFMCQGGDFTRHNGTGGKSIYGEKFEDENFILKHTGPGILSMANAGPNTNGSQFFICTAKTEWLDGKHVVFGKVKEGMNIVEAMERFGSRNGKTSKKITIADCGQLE

[2] = system: genotype 1b subgenomic HCV replicon in Huh7.5 cells; assay type: cell-based, hepatitis C virus; conditions: read-out: RPLN-1b IC50
Protocol: Method 2: Measuring Inhibitory Effects in a HCV Replicon System
Susceptibility to compounds was analyzed in Huh7.5 cells containing genotype 1a or 1b subgenomic HCV replicons co-expressing a luciferase reporter gene. The original replicons, pFK389lucubineo_3_3′_ET and pH/SG-Neo(L+I), were licensed from ReBlicon GmbH (Germany) and Apath LLC (Saint Louis, Mo.), respectively. The firefly reporter gen was replaced by renilla luciferase reporter gene using standard molecular biology techniques as follows.
Generation of genotype 1b subgenomic replicon: The renilla […]-neomycin phosphotransferase cassette was amplified from pF9 cytomegalovirus (CMV) hRluc-Neo Flexi(R) (Promega) by PCR using Accuprime super mix II (Invitrogen) and a primer set of Ascl hRlucNeo Fwd and NotI hRluc Rev. These two primers have the following sequences and introduce restriction sites for subsequent cloning: Ascl hRlucNeo Fwd, 5 […] 3(Ascl site underlined) (SEQ. ID No. 1), and NotI hRluc Rev, 5[…] 3(NotI site underlined) (SEQ ID No. 2). The amplification product was subcloned into pCR2.1-TOPO (Invitrogen). The resulting plasmid was digested with Ascl and NotI, and the excised fragment (hRluc-Neo) was ligated with the Roche Quick Ligation Kit (Roche) into pFK1389lucubineo_3_3′_ET digested with the same enzymes.
The assay medium for both, luciferase reporter HCV replicon and cytotoxicity assays contains phenol red-free DMEM and lacks G418. […] Luciferase activity of compound treated cells is measured relative to DMSO treated cells after 72 h incubation using Renilla-Glo™ Luciferase Assay (Promega). Cytotoxicity (CC50) is analyzed using Cell Titer-Glo™ (Promega).

cyclophilin B (CypB) = cyclophilin B (CypB) (Homo sapiens (Human), UniProt P23284); assay: Inhibitor binding to cyclophilin proteins by SPR, CypB; set-up: unit not given here; conditions: 1:1 binding model
cyclophilin B (CypB), sequence (P23284 34-216): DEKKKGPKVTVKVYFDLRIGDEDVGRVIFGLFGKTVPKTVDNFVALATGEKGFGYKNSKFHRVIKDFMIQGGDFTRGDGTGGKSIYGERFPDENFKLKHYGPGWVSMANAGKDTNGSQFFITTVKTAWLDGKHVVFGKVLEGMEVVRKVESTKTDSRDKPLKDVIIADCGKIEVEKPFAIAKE
Protocol: (§1) Method 1: Measuring Inhibitor Binding to Cyclophilin Proteins
(§2) Binding of inhibitors to expressed cyclophilins was determined using surface plasmon resonance (SPR) experiments. Briefly, avi-tagged cyclophilin proteins with mono-biotinylation were immobilized onto a Biotin CAPture chip (GE Healthcare, cat. #28920234). SPR experiments were carried out on an upgraded Biacore T200 system using a running buffer containing the inhibitor, 10 mM HEPES, pH 7.4, 150 mM NaCl, 0.05% P20, and 3% DMSO. Single-cycle kinetics measurements were used to study the interactions between cyclophilin inhibitors and different cyclophlins. Accordingly, compound at various concentrations was injected to the flow cells with a contact time of 1 min each at a flow rate of 50 μL/min. The final dissociation phase lasts for 10 min following the sample injection. Data was analyzed using Biacore T200 Evaluation Software Version 1.0 and a 1:1 binding model was applied to fit the data to obtain kon, koff, and KD.

[3] = system: peripheral blood mononuclear cells (PBMC); assay: Anti-proliferative or immunosuppressive activity, BrdU incorporation in PHA-stimulated PBMC; assay type: cell-based; conditions: PHA 3 μg/ml, 60 hour compound treatment; read-out: EMV PBMC IC50
Protocol: Method 3: Measuring Anti-Proliferative or Immunosuppressive Activity
The potential anti-proliferative activity of compounds on T-cells was analyzed based on the amount of bromodesoxy uridine (BrdU) incorporated into DNA of fresh peripheral blood mononuclear cells (PBMC) using the BrdU ELISA kit (Roche). The assay is performed in 96-well plate format with 30,000 PBMCs seeded per well in X-VIVO 15 medium (Lonza). T-cell proliferation was stimulated by addition of 3 μg/ml phytohemagglutinin (PHA) in PBMCs obtained from two donors.

CypF = CypF (Homo sapiens (Human), UniProt P30405); assay: Inhibitor binding to cyclophilin proteins by SPR, CypF; conditions: 1:1 binding model
CypF, sequence (P30405 30-207): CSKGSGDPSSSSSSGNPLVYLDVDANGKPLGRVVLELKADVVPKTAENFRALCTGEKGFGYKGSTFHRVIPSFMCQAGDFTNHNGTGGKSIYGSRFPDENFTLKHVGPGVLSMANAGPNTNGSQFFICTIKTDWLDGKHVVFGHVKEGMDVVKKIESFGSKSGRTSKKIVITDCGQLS
Protocol: as §1, §2

[4] = genotype 1b replicon, 72 h incubation

SMILES	IC50 [1] [nM]	CypA Kd (cyclophilin A (CypA))	IC50 [2, 4] [nM]	CypB Kd (cyclophilin B (CypB))	IC50 [3] [nM]	CypF Kd (CypF) [nM]	IC50 [2] [nM]
C/C=C/C[C@@H](C)[C@@H](O)[C@H]1C(=O)N[C@@H](CC)C(=O)N(C)[C@H](C)C(=O)N(C)[C@@H]([C@H](C)CCCN2CCN(CC)CC2)C(=O)N[C@@H](C(C)C)C(=O)N(C)[C@@H](CC(C)C)C(=O)N[C@@H](C)C(=O)N[C@H](C)C(=O)N(C)[C@@H](CC(C)C)C(=O)N(C)[C@@H](CC(C)C)C(=O)N(C)[C@@H](C(C)C)C(=O)N1C (stereo in doubt) [Compound 2.19.4, 3-[D-Ala]-4-[(2S,3R)-6-(4-ethylpiperazin-1-yl)-3-methyl-2-(methylamino)hexanoyl]-cyclosporin]	2600	0.6	60	0.4	8800	0.4	
C/C=C/C[C@@H](C)[C@@H](O)[C@H]1C(=O)N[C@@H](CC)C(=O)N(C)[C@H](C)C(=O)N(C)[C@@H]([C@H](C)CCCN2CCC(OC)CC2)C(=O)N[C@@H](C(C)C)C(=O)N(C)[C@@H](CC(C)C)C(=O)N[C@@H](C)C(=O)N[C@H](C)C(=O)N(C)[C@@H](CC(C)C)C(=O)N(C)[C@@H](CC(C)C)C(=O)N(C)[C@@H](C(C)C)C(=O)N1C (stereo in doubt) [Compound 2.19.5, 3-[D-Ala]-4-[(2S,3R)-6-(4-methoxypiperidin-1-yl)-3-methyl-2-(methylamino)hexanoyl]-cyclosporin]	4300	0.7	80	0.5	8900	0.4	
C/C=C/C[C@@H](C)[C@@H](O)[C@H]1C(=O)N[C@@H](CC)C(=O)N(C)[C@H](C(C)C)C(=O)N(C)C([C@H](C)COC)C(=O)N[C@@H](C(C)C)C(=O)N(C)[C@@H](CC(C)C)C(=O)N[C@@H](C)C(=O)N[C@H](C)C(=O)N(C)[C@@H](CC(C)C)C(=O)N(C)[C@@H](CC(C)C)C(=O)N(C)[C@@H](C(C)C)C(=O)N1C (stereo in doubt) [Compound 3.3, 3-[(R)-3-methyl-2-(methylamino)butanoyl]-4-[(2S,3S)-4-methoxy-3-methyl-2-(methylamino)butanoyl]-cyclosporin]	2000	13.7		7.4	13200	8.2	100
C/C=C/C[C@@H](C)[C@@H](O)[C@H]1C(=O)N[C@@H](CC)C(=O)N(C)[C@H](CCCO)C(=O)N(C)[C@@H]([C@H](C)CS(C)(=O)=O)C(=O)N[C@@H](C(C)C)C(=O)N(C)[C@@H](CC(C)C)C(=O)N[C@@H](C)C(=O)N[C@H](C)C(=O)N(C)[C@@H](CC(C)C)C(=O)N(C)[C@@H](CC(C)C)C(=O)N(C)[C@@H](C(C)C)C(=O)N1C (stereo in doubt) [Compound 3.4.1, 3-[(R)-5-hydroxy-2-(methylamino)pentanoyl]-4-[(2S,3S)-3-methyl-2-(methylamino)-4-(methylsulfonyl)butanoyl]-cyclosporin]	2700	7.0	4500	2.8	5800	3.8	
C/C=C/C[C@@H](C)[C@@H](O)[C@H]1C(=O)N[C@@H](CC)C(=O)N(C)[C@H](C)C(=O)N(C)[C@@H]([C@H](C)CN2CC3CCC(C2)O3)C(=O)N[C@@H](C(C)C)C(=O)N(C)[C@@H](CC(C)C)C(=O)N[C@@H](C)C(=O)N[C@H](C)C(=O)N(C)[C@@H](CC(C)C)C(=O)N(C)[C@@H](CC(C)C)C(=O)N(C)[C@@H](C(C)C)C(=O)N1C [Compound 2.5.3, 3-[D-Ala]-4-[(2S,3R)-4-(8-oxa-3-azabicyclo[3.2.1]octan-3-yl)-3-methyl-2-(methylamino)butanoyl]-cyclosporin] (cyclo([MeBmt][Abu][dNMeA][X46]V[NMeL]A[dA][NMeL][NMeL][NMeV]))	1700	2.4		1.8	5800	1.4	42
C/C=C/C[C@@H](C)[C@@H](O)[C@H]1C(=O)N[C@@H](CC)C(=O)N(C)[C@H](C)C(=O)N(C)[C@@H]([C@H](C)CN2C[C@H](C)OC[C@@H]2C)C(=O)N[C@@H](C(C)C)C(=O)N(C)[C@@H](CC(C)C)C(=O)N[C@@H](C)C(=O)N[C@H](C)C(=O)N(C)[C@@H](CC(C)C)C(=O)N(C)[C@@H](CC(C)C)C(=O)N(C)[C@@H](C(C)C)C(=O)N1C [Compound 2.5.6, 3-[D-Ala]-4-[(2S,3R)-4-((2S,5S)-2,5-dimethylmorpholino)-3-methyl-2-(methylamino)butanoyl]-cyclosporin] (cyclo(A[dA][NMeL][NMeL][NMeV][MeBmt][Abu][dNMeA][X31]V[NMeL]))	2600	5.0	35	2.7	3400	2.5	
C/C=C/C[C@@H](C)[C@@H](O)[C@H]1C(=O)N[C@@H](CC)C(=O)N(C)[C@H](C)C(=O)N(C)[C@@H]([C@H](C)COCCN2CCOC[C@@H]2C)C(=O)N[C@@H](C(C)C)C(=O)N(C)[C@@H](CC(C)C)C(=O)N[C@@H](C)C(=O)N[C@H](C)C(=O)N(C)[C@@H](CC(C)C)C(=O)N(C)[C@@H](CC(C)C)C(=O)N(C)[C@@H](C(C)C)C(=O)N1C [Compound 2.8.6, 3-[D-Ala]-4-[(2S,3S)-3-methyl-2-(methylamino)-4-(2-((S)-3-methylmorpholino)ethoxy)butanoyl]-cyclosporin] (cyclo(A[dA][NMeL][NMeL][NMeV][MeBmt][Abu][dNMeA][X82]V[NMeL]))	4800	1.3	13	0.9		0.8	
C/C=C/C[C@@H](C)[C@@H](O)[C@H]1C(=O)N[C@@H](CC)C(=O)N(C)[C@H](C)C(=O)N(C)[C@@H]([C@H](C)CCC(=O)N2CCOCC2)C(=O)N[C@@H](C(C)C)C(=O)N(C)[C@@H](CC(C)C)C(=O)N[C@@H](C)C(=O)N[C@H](C)C(=O)N(C)[C@@H](CC(C)C)C(=O)N(C)[C@@H](CC(C)C)C(=O)N(C)[C@@H](C(C)C)C(=O)N1C [Compound 2.14.4, 3-[D-Ala]-4-[(2S,3R)-3-methyl-2-(methylamino)-6-morpholino-6-oxohexanoyl]-cyclosporin] (cyclo(A[dA][NMeL][NMeL][NMeV][MeBmt][Abu][dNMeA][X52]V[NMeL]))	4800	2.1		1.5		1.1	
C/C=C/C[C@@H](C)[C@@H](O)[C@H]1C(=O)N[C@@H](CC)C(=O)N(C)[C@H](C)C(=O)N(C)[C@@H]([C@H](C)CCCOC(=O)N(C)C2CCN(C)CC2)C(=O)N[C@@H](C(C)C)C(=O)N(C)[C@@H](CC(C)C)C(=O)N[C@@H](C)C(=O)N[C@H](C)C(=O)N(C)[C@@H](CC(C)C)C(=O)N(C)[C@@H](CC(C)C)C(=O)N(C)[C@@H](C(C)C)C(=O)N1C [Compound 2.19.9, 3-[D-Ala]-4-[(2S,3R)-3-methyl-6-((methyl(1-methylpiperidin-4-yl)carbamoyl)oxy)-2-(methylamino)hexanoyl]-cyclosporin] (cyclo(A[dA][NMeL][NMeL][NMeV][MeBmt][Abu][dNMeA][X42]V[NMeL]))	3700	0.8		0.4		0.4	
C/C=C/C[C@@H](C)[C@@H](O)[C@H]1C(=O)N[C@@H](CC)C(=O)N(C)[C@H](CC)C(=O)N(C)[C@@H]([C@H](C)COC)C(=O)N[C@@H](C(C)C)C(=O)N(C)[C@@H](CC(C)C)C(=O)N[C@@H](C)C(=O)N[C@H](C)C(=O)N(C)[C@@H](CC(C)C)C(=O)N(C)[C@@H](CC(C)C)C(=O)N(C)[C@@H](C(C)C)C(=O)N1C [Compound 3.1, 3-[(R)-2-(methylamino)butanoic acid]-4-[(2S,3S)-4-methoxy-3-methyl-2-(methylamino)butanoyl]-cyclosporin]	2100	3.4		1.6		1.9	
